Assay [1] concerns the target T1, Lethal factor (Bacillus anthracis, UniProt P15917).
T1 sequence (P15917 whole entry): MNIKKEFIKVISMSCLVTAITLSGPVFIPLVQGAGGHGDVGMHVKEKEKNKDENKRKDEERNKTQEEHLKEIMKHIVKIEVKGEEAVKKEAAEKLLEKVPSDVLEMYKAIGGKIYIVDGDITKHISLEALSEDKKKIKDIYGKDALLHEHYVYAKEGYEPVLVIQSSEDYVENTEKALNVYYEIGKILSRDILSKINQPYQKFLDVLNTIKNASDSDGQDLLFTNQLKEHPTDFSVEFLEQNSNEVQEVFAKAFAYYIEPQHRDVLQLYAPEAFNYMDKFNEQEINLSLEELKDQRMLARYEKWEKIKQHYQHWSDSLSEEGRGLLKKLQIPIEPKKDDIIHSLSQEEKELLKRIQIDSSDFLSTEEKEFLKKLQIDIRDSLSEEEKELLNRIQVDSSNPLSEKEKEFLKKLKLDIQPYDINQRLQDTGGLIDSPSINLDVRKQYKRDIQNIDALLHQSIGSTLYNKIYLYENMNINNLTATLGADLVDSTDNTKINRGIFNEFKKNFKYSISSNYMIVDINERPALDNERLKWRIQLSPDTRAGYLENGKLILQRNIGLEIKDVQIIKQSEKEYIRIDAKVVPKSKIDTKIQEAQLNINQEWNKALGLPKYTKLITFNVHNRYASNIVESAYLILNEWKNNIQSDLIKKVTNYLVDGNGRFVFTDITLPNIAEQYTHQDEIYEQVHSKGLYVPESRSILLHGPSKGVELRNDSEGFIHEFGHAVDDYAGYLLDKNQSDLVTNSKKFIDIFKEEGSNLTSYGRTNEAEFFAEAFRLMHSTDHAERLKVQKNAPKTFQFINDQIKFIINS
The experiment in a line: Inhibition of Bacillus anthracis Lethal factor after 10 mins by mobility shift protease assay using 8 uM FITC as substrate.

The target of assay [2] is T1, Lethal factor. The experiment in a line: Inhibition of Bacillus anthracis Lethal factor after 5 mins by FRET assay.

Structures are written as SMILES.

As usually defined, the IC50 is the point on the concentration scale where inhibition reaches its midpoint. On to `Cc1cc(S(=O)(=O)N(Cc2ccc(CCN)cc2)[C@H](C)C(=O)NO)ccc1F`, for which the values for the IC50 on Lethal factor [1] and against Lethal factor [2] were 1.2 µM and 8.9 µM, respectively.

With `Cc1cc(S(=O)(=O)N(CCOCc2ccccc2)[C@H](C)C(=O)NO)ccc1F`, the figures for the IC50 at Lethal factor [1] and on Lethal factor [2] were 14 µM and 57 µM, respectively.

For `Cc1cc(S(=O)(=O)N(Cc2cc(F)cc(F)c2)[C@H](C)C(=O)NO)ccc1F`, the concentration for half-maximal inhibition (IC50) amounted to 7 µM on Lethal factor [1] and 26 µM against Lethal factor [2].

On to `CC(=O)NCCCCCN([C@H](C)C(=O)NO)S(=O)(=O)c1ccc(F)c(C)c1`, for which the concentration for half-maximal inhibition (IC50) was 4.3 µM at Lethal factor [1] and 19 µM at Lethal factor [2].

As to `Cc1cc(S(=O)(=O)N(Cc2ccc(CCNC(=O)OC(C)(C)C)cc2)[C@H](C)C(=O)NO)ccc1F`, the IC50 was 2.1 µM at Lethal factor [1] and 6.9 µM against Lethal factor [2].

With `Cc1cc(S(=O)(=O)N(C)[C@H](C)C(=O)NO)ccc1F`, the concentration for half-maximal inhibition (IC50) stood at 9.6 µM at Lethal factor [1] and 37 µM on Lethal factor [2].

As for `Cc1cc(S(=O)(=O)N(CCCCCCCC(=O)OC(C)(C)C)[C@H](C)C(=O)NO)ccc1F`, the concentration for half-maximal inhibition (IC50) at Lethal factor [1] worked out at 3.2 µM; at Lethal factor [2], 8 µM.

As to `Cc1cc(S(=O)(=O)N(Cc2ccc(F)cc2)[C@H](C)C(=O)NO)ccc1F`, the IC50 at Lethal factor [1] worked out at 11 µM; at Lethal factor [2], 29 µM.

In the case of `Cc1cc(S(=O)(=O)N[C@H](C)C(=O)NO)ccc1F`, the IC50 on Lethal factor [1] was determined as 0.5 µM; against Lethal factor [2] it was 1.6 µM.

Take `Cc1cc(S(=O)(=O)N(Cc2ccc(CN)cc2)[C@H](C)C(=O)NO)ccc1F`: the IC50 on Lethal factor [1] turned out to be 1.3 µM; against Lethal factor [2], 5.6 µM.

Consider `CC(=O)NCCc1ccc(CN([C@H](C)C(=O)NO)S(=O)(=O)c2ccc(F)c(C)c2)cc1`, for which the half-inhibitory concentration (IC50) at Lethal factor [1] amounted to 3.2 µM; at Lethal factor [2], 17 µM.

In the case of `Cc1cc(S(=O)(=O)N(Cc2ccccc2F)[C@H](C)C(=O)NO)ccc1F`, the results for the concentration for half-maximal inhibition (IC50) on Lethal factor [1] and against Lethal factor [2] were 9.5 µM and 33 µM, respectively.

With `Cc1cc(S(=O)(=O)N(CCCCCN)[C@H](C)C(=O)NO)ccc1F`, the values for the IC50 at Lethal factor [1] and on Lethal factor [2] were 1.3 µM and 8.2 µM, respectively.

In the case of `Cc1cc(S(=O)(=O)N(Cc2cccc(CN)c2)[C@H](C)C(=O)NO)ccc1F`, the half-maximal inhibitory concentration (IC50) on Lethal factor [1] amounted to 1.7 µM; on Lethal factor [2], 10 µM.

On to `CC(=O)NCc1ccc(CN([C@H](C)C(=O)NO)S(=O)(=O)c2ccc(F)c(C)c2)cc1`, for which the IC50 at Lethal factor [1] was determined as 3.5 µM; at Lethal factor [2], 16 µM.

On to `CC(=O)Nc1cccc(CN([C@H](C)C(=O)NO)S(=O)(=O)c2ccc(F)c(C)c2)c1`, for which the half-inhibitory concentration (IC50) on Lethal factor [1] is 4.8 µM; against Lethal factor [2], 21 µM.

Turning to `Cc1cc(S(=O)(=O)N(Cc2ccc(CNC(=O)OC(C)(C)C)cc2)[C@H](C)C(=O)NO)ccc1F`, the 50% inhibitory concentration (IC50) at Lethal factor [1] turned out to be 3.4 µM; against Lethal factor [2], 15 µM.

With `CC(=O)NCc1cccc(CN([C@H](C)C(=O)NO)S(=O)(=O)c2ccc(F)c(C)c2)c1`, the IC50 on Lethal factor [1] came out at 4.7 µM; against Lethal factor [2] it was 15 µM.

Regarding `Cc1cc(S(=O)(=O)N(C(C)C)[C@H](C)C(=O)NO)ccc1F`, the IC50 at Lethal factor [1] and against Lethal factor [2] was more than 100 µM in each case.

Take `CNC(=O)CCCCCCCN([C@H](C)C(=O)NO)S(=O)(=O)c1ccc(F)c(C)c1`: the IC50 at Lethal factor [1] turned out to be 9.3 µM; against Lethal factor [2] it was 19 µM.

Consider `Cc1cc(S(=O)(=O)N(CCCCCCCC(=O)O)[C@H](C)C(=O)NO)ccc1F`, for which the IC50 turned out to be 47 µM at Lethal factor [1] and 91 µM at Lethal factor [2].

Take `CC(=O)NCCCN([C@H](C)C(=O)NO)S(=O)(=O)c1ccc(F)c(C)c1`: the concentration for half-maximal inhibition (IC50) on Lethal factor [1] was determined as 30 µM; at Lethal factor [2], 117 µM.

`CC(=O)NCCCCCCN([C@H](C)C(=O)NO)S(=O)(=O)c1ccc(F)c(C)c1`: the IC50 was 3.9 µM at Lethal factor [1] and 14 µM at Lethal factor [2].

For the compound `Cc1cc(S(=O)(=O)N(Cc2c(F)cccc2F)[C@H](C)C(=O)NO)ccc1F`, the 50% inhibitory concentration (IC50) stood at 13 µM on Lethal factor [1] and 42 µM against Lethal factor [2].

Consider `Cc1cc(S(=O)(=O)N(Cc2ccc(N)cc2)[C@H](C)C(=O)NO)ccc1F`, for which the results for the 50% inhibitory concentration (IC50) at Lethal factor [1] and against Lethal factor [2] were 6.4 µM and 29 µM, respectively.

As to `Cc1cc(S(=O)(=O)N(CCCN)[C@H](C)C(=O)NO)ccc1F`, the IC50 stood at 3.7 µM at Lethal factor [1] and 12 µM at Lethal factor [2].

As to `Cc1cc(S(=O)(=O)N(CCCCCCN)[C@H](C)C(=O)NO)ccc1F`, the IC50 was determined as 1.1 µM on Lethal factor [1] and 4.4 µM against Lethal factor [2].

Turning to `Cc1cc(S(=O)(=O)N(CCCCN)[C@H](C)C(=O)NO)ccc1F`, the half-maximal inhibitory concentration (IC50) at Lethal factor [1] worked out at 1.8 µM; against Lethal factor [2], 7.4 µM.

(Values after ChEMBL document CHEMBL3632585, “Probing the S2' Subsite of the Anthrax Toxin Lethal Factor Using Novel N-Alkylated Hydroxamates” (J Med Chem, 2015).)
